Article PMC6104039 (Nature Communications, 2018)
“And” between values parts separate entries of the source, which are not always exact repeats. Equal entries are not always repeated. “Also recorded” adds a separate entry of the source.

Test system: SkM
Assay: Lipidomic profiling of skeletal muscle (quadriceps) of mice on chow or HFD
Type: in vivo
From the text: Male C57BL6/J mice were obtained from the Animal Resources Centre in Perth (WA, Australia). […] Treatment was commenced at the same time as mice were randomised to dietary groups. The experiments were approved by the UNSW animal care and ethics committee (ACEC 15/48B), and followed guidelines issued by the National Health and Medical Research Council of Australia.
Lipids were extracted from frozen tissue samples or cells using a two-phase procedure with methyl-tert-butyl ether (MTBE)/methanol/water (10:3:2.5, v/v/v)[67]. Frozen tissue samples (~20 mg) were homogenized in 0.2 mL methanol containing 0.01% butylated hydroxytoluene (BHT), using a Precellys 24 homogenizer and Cryolys cooling unit (Bertin Technologies) with CK14 (1.4-mm ceramic) beads. The homogenates were spiked with an internal standard mixture comprising 5 nmole 19:0/19:0 phosphatidylcholine and 2 nmole each of 17:0/17:0 phosphatidylethanolamine, 17:0/17:0 phosphatidylserine, 17:0/17:0 d5-diacylglycerol, 17:0/17:0 phosphatidylglycerol, 14:0/14:0/14:0/14:0 cardiolipin, 18:1/12:0 SM, 18:1/17:0 ceramide, 18:1/12:0 glucosylceramide, 18:1/12:0 lactosylceramide, 18:1/12:0 sulfatide (all from Avanti Polar Lipids, USA), and 17:0/17:0/17:0 TAG (Cayman Chemical, USA), then transferred to 10 mL screw cap glass tubes. The homogenization tubes containing beads were then washed with another 0.3 mL methanol, and this wash was combined with the first methanol extract, after which 1.7 mL MTBE was added and the samples were sonicated in an ice-cold sonicating water bath (Thermoline Scientific, Australia) for 30 min. Phase separation was induced by addition of 417 µL of mass spectrometry-grade water followed by vortexing and centrifugation at 1000 × g for 10 min. The upper organic phase was collected into 5 mL glass tubes. The lower phase was re-extracted by adding 1 mL MTBE, 300 μL methanol, and 250 μL water. The organic phases were combined in the 5 mL glass tubes and dried under vacuum in a Savant SC210 SpeedVac (Thermo Scientific), then reconstituted in 500 μL methanol and stored at −20 °C until analysis.
Lipidomic profiling was performed on a QExactive Plus mass spectrometer with heated electrospray ionization (HESI) probe and a Dionex UltiMate 2000 LC pump (Thermo Fisher Scientific). Extracts were resolved on a 2.1 × 100 mm Waters Acquity C18 UPLC column (1.7 µm […]), using a binary gradient in which mobile phase A consisted of acetonitrile:water (60:40), 10 mM ammonium formate, 0.1% formic acid; and mobile phase B was isopropanol:acetonitrile (90:10), 10 mM ammonium formate, 0.1% formic acid[68]. The flow rate was 260 µL/min and column oven 55 °C. Data was acquired in full scan/data-dependent MS^2 mode (full scan resolution 70,000 FWHM, scan range 400–1200 m/z). The ten most abundant ions in each cycle were subjected to MS^2 using an isolation window of 1.4 m/z, collision energy 30 eV, resolution 17,500, maximum integration time 110 ms and dynamic exclusion window 10 s. An exclusion list of background ions was used based on a solvent blank. LipidSearch v4.1.30 software (ThermoFisher Scientific) was used for chromatogram alignment, peak identification and integration. Each lipid peak was manually verified for column elution time and characteristic fragment ions. Data were then exported to an Excel spreadsheet for normalisation of each lipid to its class-specific internal standard, and lipid concentrations were calculated relative to the internal standard.
Data were log transformed, then subjected to two-tailed t-tests adjusted for multiple comparisons using GraphPad PRISM (Benjamini, Krieger and Yekutieli correction, Q = 1%).

[1] = Muscle lipidomic data, Chow Vehicle vs Chow P053, Mean1 minus Mean2
[2] = Muscle lipidomic data, Chow Vehicle vs Chow P053, Mean2 = Chow P053 group
[3] = Muscle lipidomic data, HFD Vehicle vs HFD P053, Mean1 minus Mean2
[4] = Muscle lipidomic data, HFD Vehicle vs HFD P053, Mean2 = HFD P053 group

C[C@@](N)(CO)CCc1ccc(OCc2ccc(Cl)c(Cl)c2)cc1 [P053, (S)-2-amino-4-(4-(3,4-dichlorobenzyloxy)phenyl)-2-methylbutan-1-ol]
Ceramide 18:2/18:0 content of skeletal muscle (HFD + P053, individual mice): 0.85 (2×) and 1.05 and 0.95 and 1.06 and 1.53 and 1.34 and 0.98 and 1.27 and 2.27 and 1.58 and 1.22 and 1.29 (2×) and 0.73 and 0.92 and 1.11 and 0.97 and 0.74 | SM 34:1 content of skeletal muscle (HFD + P053, individual mice): 56.88 and 99.05 and 291.61 and 79.88 and 179.42 and 129.66 and 30.83 and 225.53 and 214.19 and 48.41 and 47.17 and 48.35 and 37.16 and 22.64 and 38.24 and 42.99 and 33.41 and 36.54 and 32.79 | SM 36:1 content of skeletal muscle (HFD + P053, individual mice): 417.25 and 223.91 and 402.67 and 173.58 and 151.95 and 224.57 and 278.63 and 314.63 and 349.53 and 221.70 and 178.54 and 207.41 and 149.58 and 139.86 and 137.50 and 198.09 and 163.61 and 154.30 and 147.61 | SM 36:2 content of skeletal muscle (HFD + P053, individual mice): 2.88 and 7.47 and 1.66 and 1.87 and 1.75 and 5.22 and 2.66 and 6.56 and 8.38 and 7.06 and 6.58 and 7.04 and 4.61 and 3.90 and 3.95 and 6.89 and 4.71 and 5.16 and 4.33 | SM 38:1 content of skeletal muscle (HFD + P053, individual mice): 11.48 and 13.05 and 11.02 and 10.80 and 17.24 and 10.17 and 15.13 and 9.50 and 12.28 and 0.77 (2×) and 0.82 and 1.11 and 0.80 and 0.71 (2×) and 0.68 and 0.83 and 0.73 | SM 40:1 content of skeletal muscle (HFD + P053, individual mice): 27.34 and 27.26 and 26.32 and 23.00 and 31.62 and 23.79 and 31.23 and 22.04 and 24.26 and 29.13 and 27.02 and 34.08 and 33.01 and 18.95 and 25.13 and 25.49 and 34.47 and 24.05 and 33.50 | SM 40:2 content of skeletal muscle (HFD + P053, individual mice): 1.78 and 2.91 (2×) and 1.98 and 2.11 and 2.83 and 1.89 and 2.53 and 1.77 and 2.29 and 2.59 and 3.38 and 2.49 and 1.96 and 2.67 and 2.64 and 2.84 and 2.34 and 2.94 | SM 42:1 content of skeletal muscle (HFD + P053, individual mice): 15.46 and 16.53 and 18.68 and 19.65 and 22.92 and 14.56 and 23.18 and 14.90 and 18.70 and 19.26 and 17.69 and 25.18 and 22.26 and 12.72 and 19.43 and 19.06 and 23.08 and 18.56 and 31.22 | SM 42:2 content of skeletal muscle (HFD + P053, individual mice): 53.70 and 57.56 and 54.97 and 42.97 and 63.03 and 48.46 and 60.01 and 50.89 and 52.69 and 51.87 and 48.15 and 70.42 and 61.77 and 37.14 and 54.20 and 54.85 and 64.93 and 49.70 and 71.83 | SM 42:3 content of skeletal muscle (HFD + P053, individual mice): 9.08 and 11.26 and 8.06 and 8.54 and 12.73 and 9.01 and 12.20 and 10.73 and 15.91 and 12.10 and 11.91 and 13.64 and 11.55 and 7.81 and 10.86 and 9.89 and 12.79 and 9.17 and 13.47 | reduction of most triacylglycerol (TAG) species in SkM (HFD + P053 compared to HFD + vehicle): more than 50% | Cer(d18:1/18:0)+H, Difference [1]: 0.4848 | Cer(d18:2/18:0)+H, Difference [1]: 0.6042 | Cer(d18:1/18:0)+H, Mean2 [2]: 2.896 | Cer(d18:2/18:0)+H, Mean2 [2]: 0.4179 | Cer(d18:1/18:0)+H, Difference [3]: 0.7206 | Cer(d18:1/22:0)+H, Difference [3]: -0.3135 | Cer(d18:1/24:0)+H, Difference [3]: -0.4027 | Cer(d18:1/24:1)+H, Difference [3]: -0.3555 | Cer(d18:2/18:0)+H, Difference [3]: 0.8901 | SM(d41:1)+H, Difference [3]: -0.3059 | SM(d42:2)+H, Difference [3]: -0.2817 | Cer(d18:1/18:0)+H, Mean2 [4]: 2.811 | Cer(d18:1/22:0)+H, Mean2 [4]: 0.3563 | Cer(d18:1/24:0)+H, Mean2 [4]: 0.4756 | Cer(d18:1/24:1)+H, Mean2 [4]: 1.172 | Cer(d18:2/18:0)+H, Mean2 [4]: 0.1066 | SM(d41:1)+H, Mean2 [4]: 1.941 | SM(d42:2)+H, Mean2 [4]: 3.999 | DG levels in SkM (chow or HFD): does not affect; also recorded: unaffected | SkM TAG levels (normal chow): did not affect | C18 ceramide levels in SkM (pilot study, 7 days, 1 mg/kg/day): no effect | reduction of C18 ceramide levels in SkM (pilot study, 7 days, 5 mg/kg/day): 31%
